Source: US10844077B2, “Thiazolyl-containing compounds for treating proliferative diseases” (Dana-Farber Cancer Institute, Inc., priority 2014, dated 2020)
Where “and” joins values, the source holds several entries; their conditions need not be identical. Equal entries are not always repeated.

Key:
Assay type in all cases: cell-based
kinases in BCWM.1 cells [1] = target: kinases in BCWM.1 cells (Homo sapiens, UniProt Q14289); assay: KINATIV assay of compounds I-3 and I-9, lysate directly labeled with ATP-biotin probe (no GF); settings: PYK2; Activation Loop; 1 μM, 90 min; no GF
Protocol: (§1) The cells were harvested and lysed. […] Bound kinases were identified and quantitated by ACTIVX as described in Patricelli et al., Biochemistry, 2007, 46(2): 350-358. The compounds were tested in duplicates against duplicate or quadruplicate control samples.

kinases in BCWM.1 cells [2] = target: kinases in BCWM.1 cells (Homo sapiens, UniProt Q8TBX8); assay: as above; settings: PIP4K2C; ATP; 1 μM, 90 min; no GF
Protocol: as §1

ABL, ARG = assay: KINATIV assay; settings: 1 μM, 90 minutes, BCWM.1 cells
How it was run: (§2)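 Chemoproteomic format: endogenous kinases in cell lysate were tagged by an ATP-biotin probe and quantitated by ACTIVX.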

AMPKa1 = AMPKa1 (Homo sapiens (Human), UniProt Q13131); assay: KINATIV assay; settings: 1 μM, 90 minutes, BCWM.1 cells
How it was run: as §2

BARK1 = BARK1 (Homo sapiens (Human), UniProt P25098); assay: KINATIV assay; settings: 1 μM, 90 minutes, BCWM.1 cells
How it was run: as §2

CASK = CASK (Homo sapiens (Human), UniProt O14936); assay: KINATIV assay; settings: 1 μM, 90 minutes, BCWM.1 cells
How it was run: as §2

CDK6 = CDK6 (Homo sapiens (Human), UniProt Q00534); assay: KINATIV assay; settings: 1 μM, 90 minutes, BCWM.1 cells
How it was run: as §2

CK1a = CK1a (Homo sapiens (Human), UniProt P48729); assay: KINATIV assay; settings: 1 μM, 90 minutes, BCWM.1 cells
How it was run: as §2

EphB1 = EphB1 (Homo sapiens (Human), UniProt P54762); assay: KINATIV assay; settings: 1 μM, 90 minutes, BCWM.1 cells
How it was run: as §2

Erk2 = Erk2 (Homo sapiens (Human), UniProt P28482); assay: KINATIV assay; settings: 1 μM, 90 minutes, BCWM.1 cells
How it was run: as §2

Erk5 = Erk5 (Homo sapiens (Human), UniProt Q13164); assay: KINATIV assay; settings: 1 μM, 90 minutes, BCWM.1 cells
How it was run: as §2

FGR = FGR (Homo sapiens (Human), UniProt P09769); assay: KINATIV assay; settings: 1 μM, 90 minutes, BCWM.1 cells
How it was run: as §2

HPK1 = HPK1 (Homo sapiens (Human), UniProt Q92918); assay: KINATIV assay; settings: 1 μM, 90 minutes, BCWM.1 cells
How it was run: as §2

IKKa = IKKa (Homo sapiens (Human), UniProt O15111); assay: KINATIV assay; settings: 1 μM, 90 minutes, BCWM.1 cells
How it was run: as §2

IKKe = IKKe (Homo sapiens (Human), UniProt Q14164); assay: KINATIV assay; settings: 1 μM, 90 minutes, BCWM.1 cells
How it was run: as §2

IRAK1 = IRAK1 (Homo sapiens (Human), UniProt P51617); assay: KINATIV assay; settings: 1 μM, 90 minutes, BCWM.1 cells
How it was run: as §2

MAP3K2 = MAP3K2 (Homo sapiens (Human), UniProt Q9Y2U5); assay: KINATIV assay; settings: 1 μM, 90 minutes, BCWM.1 cells
How it was run: as §2

MAP3K2, MAP3K3 = assay: KINATIV assay; settings: 1 μM, 90 minutes, BCWM.1 cells
How it was run: as §2

MARK3 = MARK3 (Homo sapiens (Human), UniProt P27448); assay: KINATIV assay; settings: 1 μM, 90 minutes, BCWM.1 cells
How it was run: as §2

MARK4 = MARK4 (Homo sapiens (Human), UniProt Q96L34); assay: KINATIV assay; settings: 1 μM, 90 minutes, BCWM.1 cells
How it was run: as §2

MLK3 = MLK3 (Homo sapiens (Human), UniProt Q16584); assay: KINATIV assay; settings: 1 μM, 90 minutes, BCWM.1 cells
How it was run: as §2

MSK1 domain1 = MSK1 domain1 (Homo sapiens (Human), UniProt O75582); assay: KINATIV assay; settings: 1 μM, 90 minutes, BCWM.1 cells
How it was run: as §2

MYO3A, MYO3B = assay: KINATIV assay; settings: 1 μM, 90 minutes, BCWM.1 cells
How it was run: as §2

NEK8 = NEK8 (Homo sapiens (Human), UniProt Q86SG6); assay: KINATIV assay; settings: 1 μM, 90 minutes, BCWM.1 cells
How it was run: as §2

NEK9 = NEK9 (Homo sapiens (Human), UniProt Q8TD19); assay: KINATIV assay; settings: 1 μM, 90 minutes, BCWM.1 cells
How it was run: as §2

PHKg2 = PHKg2 (Homo sapiens (Human), UniProt P15735); assay: KINATIV assay; settings: 1 μM, 90 minutes, BCWM.1 cells
How it was run: as §2

PIP4K2C = PIP4K2C (Homo sapiens (Human), UniProt Q8TBX8); assay: KINATIV assay; settings: 1 μM, 90 minutes, BCWM.1 cells
How it was run: as §2

PIP5K3 = PIP5K3 (Homo sapiens (Human), UniProt Q9Y2I7); assay: KINATIV assay; settings: 1 μM, 90 minutes, BCWM.1 cells
How it was run: as §2

PYK2 = PYK2 (Homo sapiens (Human), UniProt Q14289); assay: KINATIV assay; settings: 1 μM, 90 minutes, BCWM.1 cells
How it was run: as §2

RSK1 domain2 = RSK1 domain2 (Homo sapiens (Human), UniProt Q15418); assay: KINATIV assay; settings: 1 μM, 90 minutes, BCWM.1 cells
How it was run: as §2

RSK1, RSK2, RSK3 domain1 = assay: KINATIV assay; settings: 1 μM, 90 minutes, BCWM.1 cells
How it was run: as §2

STK33 = STK33 (Homo sapiens (Human), UniProt Q9BYT3); assay: KINATIV assay; settings: 1 μM, 90 minutes, BCWM.1 cells
How it was run: as §2

ULK3 = ULK3 (Homo sapiens (Human), UniProt Q6PHR2); assay: KINATIV assay; settings: 1 μM, 90 minutes, BCWM.1 cells
How it was run: as §2

VRK2 = VRK2 (Homo sapiens (Human), UniProt Q86Y07); assay: KINATIV assay; settings: 1 μM, 90 minutes, BCWM.1 cells
How it was run: as §2

ZC2/TNIK = ZC2/TNIK (Homo sapiens (Human), UniProt Q9UKE5); assay: KINATIV assay; settings: 1 μM, 90 minutes, BCWM.1 cells
How it was run: as §2

eEF2K = eEF2K (Homo sapiens (Human), UniProt O00418); assay: KINATIV assay; settings: 1 μM, 90 minutes, BCWM.1 cells
How it was run: as §2

p70S6K = p70S6K (Homo sapiens (Human), UniProt P23443); assay: KINATIV assay; settings: 1 μM, 90 minutes, BCWM.1 cells
How it was run: as §2

p70S6Kb = p70S6Kb (Homo sapiens (Human), UniProt Q9UBS0); assay: KINATIV assay; settings: 1 μM, 90 minutes, BCWM.1 cells
How it was run: as §2

Sequence of PIP4K2C (Q8TBX8 whole entry): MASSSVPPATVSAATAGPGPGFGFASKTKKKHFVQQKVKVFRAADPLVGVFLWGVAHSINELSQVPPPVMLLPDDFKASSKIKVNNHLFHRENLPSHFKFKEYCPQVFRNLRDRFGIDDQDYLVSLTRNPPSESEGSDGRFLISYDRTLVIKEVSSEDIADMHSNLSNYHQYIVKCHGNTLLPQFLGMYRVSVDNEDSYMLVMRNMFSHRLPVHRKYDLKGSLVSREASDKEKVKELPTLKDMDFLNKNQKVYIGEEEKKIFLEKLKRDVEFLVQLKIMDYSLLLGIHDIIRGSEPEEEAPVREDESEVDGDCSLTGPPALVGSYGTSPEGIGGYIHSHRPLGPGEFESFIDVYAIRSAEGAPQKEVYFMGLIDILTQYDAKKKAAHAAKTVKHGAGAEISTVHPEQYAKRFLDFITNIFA
Sequence of kinases in BCWM.1 cells (Homo sapiens, UniProt Q8TBX8) (Q8TBX8 2-421 limits assumed): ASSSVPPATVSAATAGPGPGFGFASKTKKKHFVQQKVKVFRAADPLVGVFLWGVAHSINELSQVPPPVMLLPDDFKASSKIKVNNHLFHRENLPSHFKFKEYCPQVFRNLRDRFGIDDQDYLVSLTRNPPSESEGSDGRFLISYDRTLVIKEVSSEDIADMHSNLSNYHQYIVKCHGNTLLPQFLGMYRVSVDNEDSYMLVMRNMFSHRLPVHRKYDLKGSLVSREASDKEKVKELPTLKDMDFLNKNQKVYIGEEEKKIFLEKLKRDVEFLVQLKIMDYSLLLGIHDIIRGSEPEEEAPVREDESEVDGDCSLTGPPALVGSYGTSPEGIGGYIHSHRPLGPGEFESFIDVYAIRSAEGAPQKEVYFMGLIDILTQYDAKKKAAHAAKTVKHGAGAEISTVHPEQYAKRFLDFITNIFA
Sequence of PYK2 (Q14289 whole entry): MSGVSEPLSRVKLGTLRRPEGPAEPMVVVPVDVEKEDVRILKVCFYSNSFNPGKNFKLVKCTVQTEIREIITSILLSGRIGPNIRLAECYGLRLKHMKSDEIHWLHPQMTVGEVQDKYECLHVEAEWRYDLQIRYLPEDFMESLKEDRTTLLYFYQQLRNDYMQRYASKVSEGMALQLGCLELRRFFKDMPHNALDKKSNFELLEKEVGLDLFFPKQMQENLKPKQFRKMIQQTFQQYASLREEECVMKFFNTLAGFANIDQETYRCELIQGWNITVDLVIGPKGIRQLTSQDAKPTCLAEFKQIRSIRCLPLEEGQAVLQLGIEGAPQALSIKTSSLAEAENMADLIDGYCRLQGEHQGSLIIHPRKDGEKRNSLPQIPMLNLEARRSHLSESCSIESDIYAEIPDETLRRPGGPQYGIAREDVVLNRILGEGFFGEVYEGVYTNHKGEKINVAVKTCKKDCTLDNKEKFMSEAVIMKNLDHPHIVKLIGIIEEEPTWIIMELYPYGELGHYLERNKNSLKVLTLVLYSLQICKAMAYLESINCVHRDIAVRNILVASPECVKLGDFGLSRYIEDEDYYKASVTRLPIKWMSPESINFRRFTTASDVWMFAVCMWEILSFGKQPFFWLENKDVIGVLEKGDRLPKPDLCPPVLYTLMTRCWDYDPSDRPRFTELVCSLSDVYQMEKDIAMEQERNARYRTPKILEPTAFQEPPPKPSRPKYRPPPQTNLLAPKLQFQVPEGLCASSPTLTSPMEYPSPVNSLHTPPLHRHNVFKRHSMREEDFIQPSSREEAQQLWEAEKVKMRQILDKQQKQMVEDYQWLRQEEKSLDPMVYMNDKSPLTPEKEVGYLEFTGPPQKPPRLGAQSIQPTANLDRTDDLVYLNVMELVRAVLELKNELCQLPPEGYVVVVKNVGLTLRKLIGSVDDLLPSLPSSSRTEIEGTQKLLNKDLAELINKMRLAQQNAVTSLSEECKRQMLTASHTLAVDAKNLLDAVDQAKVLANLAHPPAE
Sequence of HPK1 (Q92918 whole entry): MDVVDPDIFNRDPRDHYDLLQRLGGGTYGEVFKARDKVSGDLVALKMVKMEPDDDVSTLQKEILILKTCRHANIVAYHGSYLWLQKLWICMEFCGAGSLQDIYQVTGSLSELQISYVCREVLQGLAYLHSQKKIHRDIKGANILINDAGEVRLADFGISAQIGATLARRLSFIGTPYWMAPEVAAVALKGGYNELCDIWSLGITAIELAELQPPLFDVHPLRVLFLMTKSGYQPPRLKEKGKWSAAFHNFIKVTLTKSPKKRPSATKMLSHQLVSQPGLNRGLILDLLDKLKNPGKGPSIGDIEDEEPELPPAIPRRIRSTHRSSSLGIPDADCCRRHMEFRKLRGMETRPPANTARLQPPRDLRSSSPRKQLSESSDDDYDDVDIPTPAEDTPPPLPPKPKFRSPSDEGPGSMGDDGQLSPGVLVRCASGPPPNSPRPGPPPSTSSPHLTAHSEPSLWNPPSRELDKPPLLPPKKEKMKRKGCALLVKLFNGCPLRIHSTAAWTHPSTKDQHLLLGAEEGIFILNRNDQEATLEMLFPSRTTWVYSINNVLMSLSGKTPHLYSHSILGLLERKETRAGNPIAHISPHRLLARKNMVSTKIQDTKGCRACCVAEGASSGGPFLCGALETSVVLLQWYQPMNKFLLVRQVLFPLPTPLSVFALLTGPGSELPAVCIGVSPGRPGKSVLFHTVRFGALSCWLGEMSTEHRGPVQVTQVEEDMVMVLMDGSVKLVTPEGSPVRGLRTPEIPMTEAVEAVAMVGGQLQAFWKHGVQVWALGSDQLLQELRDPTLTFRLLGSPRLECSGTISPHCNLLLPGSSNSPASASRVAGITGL
Sequence of MARK4 (Q96L34 whole entry): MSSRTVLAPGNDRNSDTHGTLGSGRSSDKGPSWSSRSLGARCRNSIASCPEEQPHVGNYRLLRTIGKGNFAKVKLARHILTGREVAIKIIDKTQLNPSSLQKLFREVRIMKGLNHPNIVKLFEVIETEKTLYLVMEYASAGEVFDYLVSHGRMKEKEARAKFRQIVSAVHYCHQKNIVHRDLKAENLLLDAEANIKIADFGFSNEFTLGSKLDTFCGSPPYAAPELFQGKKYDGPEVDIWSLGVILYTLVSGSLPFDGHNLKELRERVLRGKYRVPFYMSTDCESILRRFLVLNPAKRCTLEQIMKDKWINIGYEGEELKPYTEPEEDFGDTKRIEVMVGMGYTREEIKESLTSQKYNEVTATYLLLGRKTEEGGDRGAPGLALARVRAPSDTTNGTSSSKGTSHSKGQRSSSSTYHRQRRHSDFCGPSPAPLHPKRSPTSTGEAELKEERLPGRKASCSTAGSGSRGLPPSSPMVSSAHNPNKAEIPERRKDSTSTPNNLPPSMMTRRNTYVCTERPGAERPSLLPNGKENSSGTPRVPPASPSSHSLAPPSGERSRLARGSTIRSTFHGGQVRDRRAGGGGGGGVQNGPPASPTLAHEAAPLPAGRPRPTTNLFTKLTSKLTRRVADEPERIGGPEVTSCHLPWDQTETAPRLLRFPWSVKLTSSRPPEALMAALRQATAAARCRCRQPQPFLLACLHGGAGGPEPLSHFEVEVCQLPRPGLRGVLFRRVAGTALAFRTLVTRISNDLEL
Sequence of NEK9 (Q8TD19 whole entry): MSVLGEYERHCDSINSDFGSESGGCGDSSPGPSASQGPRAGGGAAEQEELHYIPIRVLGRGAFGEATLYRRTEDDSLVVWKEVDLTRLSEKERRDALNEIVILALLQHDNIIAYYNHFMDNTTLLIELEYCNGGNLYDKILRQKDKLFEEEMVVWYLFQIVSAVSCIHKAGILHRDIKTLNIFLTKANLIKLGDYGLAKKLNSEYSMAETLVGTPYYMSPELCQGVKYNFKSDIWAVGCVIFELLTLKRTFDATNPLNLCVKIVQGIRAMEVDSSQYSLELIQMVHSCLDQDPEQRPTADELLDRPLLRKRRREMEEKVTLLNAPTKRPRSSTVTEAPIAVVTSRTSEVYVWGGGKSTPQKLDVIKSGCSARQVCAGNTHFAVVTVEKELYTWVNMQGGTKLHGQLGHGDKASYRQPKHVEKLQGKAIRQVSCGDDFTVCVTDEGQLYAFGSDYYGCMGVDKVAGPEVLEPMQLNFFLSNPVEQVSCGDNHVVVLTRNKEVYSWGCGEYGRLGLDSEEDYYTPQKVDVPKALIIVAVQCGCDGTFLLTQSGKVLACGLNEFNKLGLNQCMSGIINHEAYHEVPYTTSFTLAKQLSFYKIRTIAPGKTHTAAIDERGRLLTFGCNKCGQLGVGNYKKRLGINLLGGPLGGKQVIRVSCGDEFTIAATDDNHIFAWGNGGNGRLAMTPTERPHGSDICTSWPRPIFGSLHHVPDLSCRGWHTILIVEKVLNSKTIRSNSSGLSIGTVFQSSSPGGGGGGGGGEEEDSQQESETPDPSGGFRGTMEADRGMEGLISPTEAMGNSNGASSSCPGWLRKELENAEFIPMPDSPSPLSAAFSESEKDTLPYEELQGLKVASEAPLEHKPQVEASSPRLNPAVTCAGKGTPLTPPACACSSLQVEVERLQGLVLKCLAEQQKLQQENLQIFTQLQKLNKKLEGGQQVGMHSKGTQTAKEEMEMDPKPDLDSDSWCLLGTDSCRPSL
Sequence of ULK3 (Q6PHR2 whole entry): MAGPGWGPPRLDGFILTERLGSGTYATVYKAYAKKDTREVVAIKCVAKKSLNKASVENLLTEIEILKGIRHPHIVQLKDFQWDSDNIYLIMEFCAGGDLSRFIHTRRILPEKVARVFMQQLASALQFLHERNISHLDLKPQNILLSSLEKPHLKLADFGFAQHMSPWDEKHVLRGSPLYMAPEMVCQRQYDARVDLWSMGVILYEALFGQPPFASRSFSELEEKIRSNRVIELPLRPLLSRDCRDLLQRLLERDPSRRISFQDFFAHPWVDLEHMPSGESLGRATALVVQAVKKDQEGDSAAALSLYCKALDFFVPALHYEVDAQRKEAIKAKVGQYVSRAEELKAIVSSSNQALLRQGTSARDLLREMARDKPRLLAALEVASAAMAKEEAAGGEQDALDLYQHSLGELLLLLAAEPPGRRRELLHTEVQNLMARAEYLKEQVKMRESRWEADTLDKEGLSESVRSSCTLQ

C=CC(=O)N1CC[C@H](Nc2nccc(Nc3ncc(C(=O)Nc4c(C)cccc4C)s3)n2)C1 [Example I-3]
% change of MS signal compared to control sample (kinases in BCWM.1 cells [1]): 1%
% change of MS signal compared to control sample (kinases in BCWM.1 cells [2]): −14.1%

C=CC(=O)N1CCCCC(Nc2nccc(Nc3ncc(C(=O)Nc4c(C)cccc4C)s3)n2)C1 (stereo not shown) [Example I-7]
% change of MS signal compared to control sample (ABL, ARG): >90% and >97%
% change of MS signal compared to control sample (AMPKa1): 2.7%
% change of MS signal compared to control sample (BARK1): −29.7%
% change of MS signal compared to control sample (CASK): 37.7%
% change of MS signal compared to control sample (CDK6): 4.1%
% change of MS signal compared to control sample (CK1a): −0.7%
% change of MS signal compared to control sample (EphB1): >97%
% change of MS signal compared to control sample (Erk2): −4.7%
% change of MS signal compared to control sample (Erk5): −13.8%
% change of MS signal compared to control sample (FGR): 94.7%
% change of MS signal compared to control sample (HPK1): 23.4% and 19.8%
% change of MS signal compared to control sample (IKKa): −3.5%
% change of MS signal compared to control sample (IKKe): 0.4%
% change of MS signal compared to control sample (IRAK1): 19.0%
% change of MS signal compared to control sample (MAP3K2): 4.9%
% change of MS signal compared to control sample (MAP3K2, MAP3K3): 15.6%
% change of MS signal compared to control sample (MARK3): 12.7%
% change of MS signal compared to control sample (MARK4): 4.9% and 14.1%
% change of MS signal compared to control sample (MLK3): −4.6%
% change of MS signal compared to control sample (MSK1 domain1): −40.5%
% change of MS signal compared to control sample (MYO3A, MYO3B): 17.2%
% change of MS signal compared to control sample (NEK8): 12.2%
% change of MS signal compared to control sample (NEK9): 2.5% and 1.1%
% change of MS signal compared to control sample (PHKg2): 0.6%
% change of MS signal compared to control sample (PIP4K2C): 70.9% and 60.1%
% change of MS signal compared to control sample (PIP5K3): 4.3%
% change of MS signal compared to control sample (PYK2): 16.6% and 28.4%
% change of MS signal compared to control sample (RSK1 domain2): 4.9%
% change of MS signal compared to control sample (RSK1, RSK2, RSK3 domain1): −58.3%
% change of MS signal compared to control sample (STK33): 21.1%
% change of MS signal compared to control sample (ULK3): 15.5% and 18.4%
% change of MS signal compared to control sample (VRK2): −2.3%
% change of MS signal compared to control sample (ZC2/TNIK): −1.5%
% change of MS signal compared to control sample (eEF2K): 4.9%
% change of MS signal compared to control sample (p70S6K): −70.1%
% change of MS signal compared to control sample (p70S6Kb): −42.7%

CCC(=O)N1CC[C@H](Nc2nccc(Nc3ncc(C(=O)Nc4c(C)cccc4C)s3)n2)C1 [Example I-9]
% change of MS signal compared to control sample (kinases in BCWM.1 cells [1]): 5.1%
% change of MS signal compared to control sample (kinases in BCWM.1 cells [2]): 10%
